In test [1] the target is E. coli cofactor-independent phosphoglycerate mutase (iPGM) (E. coli) (UniProt P37689).
Test [2] deals with iPGM orthologues and dPGM isozymes. The class given is biochemical.
The target in test [3] is T1, E. coli iPGM (Escherichia coli, UniProt P37689). Put plainly: biochemical.
Test [4] has as its target T2, C. elegans iPGM (Caenorhabditis elegans, UniProt G5EFZ1).
T2 sequence (G5EFZ1 1-539): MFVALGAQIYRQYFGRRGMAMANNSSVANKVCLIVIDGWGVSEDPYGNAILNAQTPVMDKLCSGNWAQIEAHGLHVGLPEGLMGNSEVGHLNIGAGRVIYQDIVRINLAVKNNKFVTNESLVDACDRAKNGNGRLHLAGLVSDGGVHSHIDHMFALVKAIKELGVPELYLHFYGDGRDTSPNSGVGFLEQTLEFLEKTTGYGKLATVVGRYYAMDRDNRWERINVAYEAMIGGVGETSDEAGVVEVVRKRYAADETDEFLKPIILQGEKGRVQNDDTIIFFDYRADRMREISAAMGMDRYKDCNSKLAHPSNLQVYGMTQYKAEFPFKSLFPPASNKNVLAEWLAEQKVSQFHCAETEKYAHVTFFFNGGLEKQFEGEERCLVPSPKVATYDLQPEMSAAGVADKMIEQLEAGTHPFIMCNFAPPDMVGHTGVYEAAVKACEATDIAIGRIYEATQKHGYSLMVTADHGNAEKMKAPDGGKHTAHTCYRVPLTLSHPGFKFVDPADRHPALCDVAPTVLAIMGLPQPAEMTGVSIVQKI
Description: PGM enzyme-coupled bioluminescent end point assay (Kinase-Glo Plus). The class given is biochemical. For orientation: Kinase-Glo measures the ATP left after a reaction by luminescence.

Test [5] has as its target B. malayi iPGM (Brugia malayi, UniProt Q4VWF8). Description: biochemical. To be noted: pIC50 B. malayi iPGM.
The target in test [6] is H. sapiens dPGM (Homo sapiens, UniProt P18669). Put plainly: Gradient elution moving boundary electrophoresis (GEMBE) assay. The settings on record: 2.1 nM H. sapiens dPGM. The class given is biochemical.
Test [7] deals with T1, E. coli iPGM. Description: biochemical. The source holds these as a separate data set.

Where two headings read alike, the source gives them in different places. Positions of bridges follow the written chain, without caps; N, C: chain ends. Non-standard residues stand in square brackets, D forms with d. Residues, ends and D or L forms follow the SMILES beside them.

T1 sequence (P37689 whole entry, looked up): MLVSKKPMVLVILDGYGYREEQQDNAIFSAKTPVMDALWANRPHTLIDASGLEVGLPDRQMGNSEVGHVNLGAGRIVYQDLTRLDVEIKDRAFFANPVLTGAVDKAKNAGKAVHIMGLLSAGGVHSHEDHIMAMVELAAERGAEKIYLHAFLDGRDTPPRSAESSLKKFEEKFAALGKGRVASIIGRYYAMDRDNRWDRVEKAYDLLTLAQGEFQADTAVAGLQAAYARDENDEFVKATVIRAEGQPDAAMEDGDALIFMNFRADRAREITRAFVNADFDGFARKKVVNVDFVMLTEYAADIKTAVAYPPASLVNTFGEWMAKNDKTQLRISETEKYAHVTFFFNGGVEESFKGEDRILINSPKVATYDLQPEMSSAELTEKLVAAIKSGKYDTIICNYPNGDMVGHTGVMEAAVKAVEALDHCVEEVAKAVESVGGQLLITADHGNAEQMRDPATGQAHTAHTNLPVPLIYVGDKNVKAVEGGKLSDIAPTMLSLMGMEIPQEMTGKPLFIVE
Sequence of B. malayi iPGM (Q4VWF8 whole entry, looked up): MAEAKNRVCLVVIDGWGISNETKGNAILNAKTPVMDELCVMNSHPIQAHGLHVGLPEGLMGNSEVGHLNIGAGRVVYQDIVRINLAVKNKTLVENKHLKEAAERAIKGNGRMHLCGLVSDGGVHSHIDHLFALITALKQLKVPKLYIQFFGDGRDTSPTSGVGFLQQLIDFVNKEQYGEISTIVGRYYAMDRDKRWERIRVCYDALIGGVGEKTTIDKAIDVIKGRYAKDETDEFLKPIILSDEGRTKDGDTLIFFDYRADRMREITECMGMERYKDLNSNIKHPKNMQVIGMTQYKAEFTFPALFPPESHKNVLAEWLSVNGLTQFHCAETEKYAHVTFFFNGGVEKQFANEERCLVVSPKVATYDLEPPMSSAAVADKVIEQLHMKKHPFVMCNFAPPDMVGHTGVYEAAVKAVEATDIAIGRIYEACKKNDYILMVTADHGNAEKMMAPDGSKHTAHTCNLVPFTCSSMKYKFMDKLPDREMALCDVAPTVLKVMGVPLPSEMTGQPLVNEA
Sequence of E. coli cofactor-independent phosphoglycerate mutase (iPGM) (E. coli) (P37689 whole entry): as the sequence (P37689 whole entry, looked up) above
Sequence of H. sapiens dPGM (P18669 whole entry): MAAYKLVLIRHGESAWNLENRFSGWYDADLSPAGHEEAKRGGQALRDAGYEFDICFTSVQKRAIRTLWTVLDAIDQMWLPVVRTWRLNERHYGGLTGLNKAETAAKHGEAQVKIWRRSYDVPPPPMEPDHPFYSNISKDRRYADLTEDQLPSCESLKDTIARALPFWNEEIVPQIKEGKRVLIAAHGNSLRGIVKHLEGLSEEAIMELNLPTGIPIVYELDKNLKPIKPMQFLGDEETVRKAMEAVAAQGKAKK

Ce-2S (Ce-2 with Cys14Ser) (peptide): in test [1], the IC50 of inhibition of PGM activity, enzyme-coupled bioluminescent assay came to 10 nM.
With “^Ac-DYDYPGDYSYLY-NH2 [Ce-L2d, linear form of Ce-2d]”, the “inhibitory activity on the PGM panel, in words” value in test [2] is “completely inactive on all iPGMs”.
In general, IC50 refers to the concentration that inhibits the measured activity by half. In test [2], `CC(C)C[C@H](NC(=O)[C@H](Cc1ccc(O)cc1)NC(=O)[C@@H]1CSCC(=O)N[C@H](Cc2ccc(O)cc2)C(=O)N[C@@H](CC(=O)O)C(=O)N[C@@H](Cc2ccc(O)cc2)C(=O)N2CCC[C@H]2C(=O)NCC(=O)N[C@@H](CC(=O)O)C(=O)N[C@@H](Cc2ccc(O)cc2)C(=O)N1)C(N)=O` [Ce-2e] ({CH2CO}-[dY]DYPGDYCYL-NH2; thioether N-8) returned a potency decrease of around 100 fold. The results for the IC50 in test [3] (pIC50 E. coli iPGM), in test [4] (pIC50 C. elegans iPGM) and in test [5] were 53.7 nM, 69.2 nM and 2950 nM, respectively.
Turning to `CC(C)C[C@H](NC(=O)[C@H](Cc1ccc(O)cc1)NC(=O)[C@@H]1CSCC(=O)N[C@H](Cc2ccc(O)cc2)C(=O)N[C@@H](CC(=O)O)C(=O)N[C@@H](Cc2ccc(O)cc2)C(=O)N2CCC[C@H]2C(=O)NCC(=O)N[C@@H](CC(=O)O)C(=O)N[C@@H](Cc2ccc(O)cc2)C(=O)N1)C(=O)N[C@@H](Cc1ccc(O)cc1)C(=O)NCC(=O)N[C@H](C(=O)N[C@@H](CS)C(=O)NCC(N)=O)[C@@H](C)O` [Ce-2], in test [6], the “pIC50 from the GEMBE assay” value is reported as “no apparent activity”. The IC50 in test [7] was 3.24 nM; in test [3] (pIC50, apparent E. coli iPGM), 1.66 nM; in test [3] (pIC50 E. coli iPGM), 0.55 nM; in test [4] (pIC50, apparent C. elegans iPGM), 2.24 nM; in test [4] (pIC50 C. elegans iPGM), 0.251 nM.

Source of the values: article PMC5382265, “Macrocycle peptides delineate locked-open inhibition mechanism for microorganism phosphoglycerate mutases” (Nature Communications, 2017).
